Source: US20110165649A1, “METHODS AND COMPOSITIONS TO IMPROVE THE HEALTH OF PLANTS, ANIMALS AND MICROBES BY MANIPULATING PROTEIN ENTRY INTO SYMBIONTS AND THEIR HOSTS” (priority 2010, published 2011)
“Also recorded” adds a separate entry of the source.

Legend:
[1] = tested on: soybean root suspension culture cells / soybean root tips; assay: Binding and entry of fluorescent lipid-binding fusion proteins, soybean root cells; format: cell-based; conditions: 1 mg/ml in 25 mM MES pH 5.8, 4° C., suspension culture cells 6 hr or root tips 12 hr
Description: B, Detection of PI-3-P but not PI-4-P on the surface of soybean cells. PEPP1-GFP or FAPP1-GFP proteins (1 mg/ml in 25 mM MES pH 5.8) were incubated with soybean root suspension culture cells for 6 hr or with soybean root tips for 12 hr at 4° C. then washed for 2 hr with 25 mM MES pH 5.8, then plasmolyzed with 0.8M Mannitol (suspension culture cells) or 4M NaCl (roots) for 30 minutes, before being photographed. Left panels show fluorescence image; right panels show the matching light micrograph. Plasma membranes are indicated by the white arrow heads.

[2] = tested on: P. sojae hyphae; assay: Binding and entry of fluorescent lipid-binding fusion proteins, P. sojae hyphae, confocal microscopy; format: cell-based, Phytophthora sojae
Description: A, Phosphatidylinositol-4-phosphate (PI-4-P) on the surface of P. sojae membranes mediates selective protein entry. Phosphatidylinositol-4-phosphate adaptor protein-1 (FAPP1)-mCherry, FAPP1-GFP, mCHerry alone or phosphatidylinositol-3-phosphate-binding PH-domain protein-1 (PEPP1)-GFP proteins (1 mg/ml) were incubated together with P. sojae hyphae for 12 hr, then washed extensively. Left panels show fluorescence image; right panels show the matching light micrograph.
To test for the presence of PI-3-P and PI-4-P on P. sojae hyphae, and the ability of those phosphoinositides to carry binding proteins into the hyphae, the pleckstrin-homology (PH) domains of the human proteins phosphatidylinositol-3-phosphate-binding PH-domain protein-1 (PEPP1) and phosphatidylinositol-4-phosphate adaptor protein-1 (FAPP1), respectively, were utilized (Dowler et al., 2000). […] To create biosensors capable of detecting PI-3P and PI-4-P in vivo, the PH domain of PEPP1 was fused to green fluorescent protein (GFP) and the PH domain of FAPP1 was fused to the modified red fluorescent protein, mCherry. (Sequences of the nucleic acids used for the production of these proteins, and the amino acid sequences corresponding to the same, are presented in FIGS. 6 A and B ([…]) and FIGS. 7 A and B (GST-FAPP1-mCherry. PEPP1-GFP and FAPP1-mCherry proteins (1 mg/ml in 25 mM 2-(N-morpholino)ethanesulfonic acid (MES) pH 5.8) were incubated with P. sojae hyphae for 6 hr at 25° C. then washed for 30 min with 25 mM MES pH 5.8, before being photographed using a Zeiss LSM510 laser scanning confocal microscope with an argon laser excitation wavelength of 488 nm for GFP or with a HeNe laser at a wavelength of 543 nm for mCherry.

[3] = tested on: Human lung adenocarcinoma cells A549; assay: Binding and entry of fluorescent lipid-binding fusion proteins, human lung cells; format: cell-based; conditions: 1 mg/ml in DPBS
Description: C, Detection of PI-3-P but not PI-4-P on the surface of human lung cells PEPP1-mCherry or FAPP1-mCherry proteins [1 mg/ml in Dulbecco's Phosphate Buffer Saline (Ca^+2/Mg^+2 free) (DPBS; Gibco)] were incubated with Human lung adenocarcinoma cells A549 (ATCC CCL-185) for 8 hr at 4° C. or 37° C. then washed twice briefly with DPBS, before being photographed. Left panels show fluorescence image; right panels show the matching light micrograph. […] FIGS. 1B and C were adapted from FIGS. 3 and 5 respectively from Kale et al 2010. External lipid PI-3-P mediates entry of eukaryotic pathogen effectors into plant and animal host cells. Cell 142:284-295.

[4] = 1 mg/ml in 25 mM MES pH 5.8, 6 hr at 25° C., confocal microscopy
[5] = hyphae stained simultaneously with PEPP1-GFP and FAPP1-mCherry

Substance: FAPP1-mCherry: PH domain of human FAPP1 (PI-4-P-binding) fused to the modified red fluorescent protein mCherry; SEQ ID NO: 8
- entry into soybean cells [1]: not
- binding to the surface of soybean cells ([1]; plasmolyzed): not
- binding to the membrane of P. sojae hyphae [2, 4]: bound to the membrane of P. sojae hyphae
- entry into P. sojae hyphae [2, 4]: entered into the cells in abundance; also recorded: entered P. sojae hyphae
- cellular entry, P. sojae hyphae [2, 5]: cellular entry
- membrane binding, P. sojae hyphae [2, 5]: strong membrane binding
- binding to the surface of human A549 cells ([3]; 8 hr at 4° C. (endocytosis inhibited)): not and neither binds to the surface of the cells and does neither
- entry into human A549 cells ([3]; 8 hr at 37° C. (endocytosis active)): not and nor enters the cells and does neither
